Data taken from US20250017878A1 (Chronic Airway Therapeutics Limited, priority 2021, published 2025).

Legend:
β2-adrenergic receptor [1] = molecular target: T1, β2-adrenergic receptor (Mus musculus, UniProt P18762); assay: Upregulation of β2-adrenergic receptor density by period of administration, Example 8 / Table 2; format: in vivo, mice; parameters: from tissue
Procedure: (§1) The periods of administration of the agents are 15 minutes, 2 days, and 28 days. […] This strongly supports the concept of combination therapy, such as with an inverse agonist and an agonist.

β-arrestin pathway = assay: Blockade of the β-arrestin pathway, Example 16 / FIG. 16; format: cell-based
[2] = test system: asthmatic mice (ovalbumin-sensitized and ovalbumin-challenged); settings: same mouse asthma model; Callaerts-Vegh et al. 2004; cited from earlier work
[3] = test system: asthmatic mice (ovalbumin-sensitized and ovalbumin-challenged); assay: Airway responsiveness to methacholine (airway resistance Raw, forced oscillation) in murine model of asthma, Example 1; format: in vivo, Balb/cJ mice
Procedure: The results obtained in drug-treated animals were compared with those obtained in vehicle-treated counterparts (controls) in experiments performed in close temporal relationship. […] Mice were sensitized with subcutaneous injection of 25 μg of ovalbumin adsorbed to aluminum hydroxide on protocol days 2, 9, and 16. Subsequently, mice were given 50 μL of saline solution containing 25 μg of ovalbumin intranasally, on a daily basis, from protocol days 23 through 27. A group of ovalbumin-sensitized saline-challenged mice serves as controls for systemic sensitization and respiratory challenges with ovalbumin. Prior to intranasal administrations, mice were sedated with halothane vapor. For the study of Example 1, ovalbumin-sensitized and ovalbumin-challenged mice, and ovalbumin-sensitized and saline-challenged mice will be referred to as asthmatic mice and control mice, respectively. […] To examine the effects of duration of β-adrenergic ligand therapy on the phenotype of the murine model of asthma, the experimental drugs were administered either acutely or chronically to different groups of asthmatic mice. […] These concentrations were chosen based on those producing therapeutic effects in mice in previously published studies. The non-asthmatic mice were fed normal chow. Salbutamol was delivered for 28 days at a dose of 0.5 mg/kg/day using an osmotic minipump (Alzet®, #2004, Durect Corporation, Cupertino, CA). […] Airway resistance (Raw) was measured using the forced oscillation technique. The cellular composition of bronchoalveolar lavage fluid (BALF) was also determined. […] However, it was observed that the degree of airway responsiveness and the number of eosinophils recovered in BALF were lower in non-treated asthmatic mice studied in close temporal relationship with mice receiving acute β-adrenergic antagonist treatments that in those obtained in non-treated asthmatic mice studied concomitantly with mice on chronic β-adrenergic antagonist therapy. […] The complex input impedance of the respiratory system was computed and the value of the real part of respiratory system impedance at 19.75 Hz was taken to reflect the magnitude of airway resistance (Raw). To examine the degree of airway responsiveness of each animal, the values for Raw as a function of methacholine doses were plotted. The largest value for Raw achieved in response to methacholine stimulation was referred to as […]. For mice that achieved a plateau in the methacholine dose-Raw response curve, the ED50 was calculated by linear interpolation using the GraphPad Prism4 (GraphPad Software, Inc.). Results obtained for β-adrenergic drug-treated and non-treated mice were performed using the analysis of variance for multiple groups of a Student's t-test for comparing two groups. The Bonferroni test was used to examine the statistical differences between experimental groups. The effects of acute drug treatments on baseline respiratory system mechanics were assessed using a two-tailed paired t-test. A value of P<0.05 was considered significant.

[4] = test system: subjects with mild asthma; assay: Salbutamol effectiveness after methacholine challenge in subjects with mild asthma on nadolol, Example 15; format: in vivo, human; settings: salbutamol 2.5 mg by nebulization
From the text: Salbutamol is a short-acting β2-adrenergic receptor agonist.

asthmatic mice [5] = assay: Decrease in airway resistance (Raw) by period of administration, Example 8 / Table 2; format: in vivo
Procedure: as §1

[6] = test system: mucous metaplasia in sensitized/challenged mice; assay: Mucous metaplasia in sensitized/challenged mice (photomicrographs), Example 10; format: in vivo; settings: sensitized/challenged mice after treatment
cAMP accumulation = assay: cAMP accumulation, Example 16 / FIG. 16; format: cell-based
[7] = cited from earlier work
[8] = test system: patients who had a history of failing to quit smoking programs; assay: Success of smoking cessation versus placebo, Example 14; format: in vivo, human; settings: patients who had failed quit smoking programs at least 5 times
β2-adrenergic receptor [9] = assay: Determination of β-adrenergic receptor density by radioligand (ICYP) binding in lung membranes of treated asthmatic mice, Example 2; format: in vivo; settings: for Apparent KD (of radioligand ICYP): KD of ICYP binding, not of the drug
Procedure: β2-adrenergic receptor numbers were measured in asthmatic mice as follows. […] Mice were sacrificed and lung membranes were isolated as follows. Frozen lung tissue was homogenized in an ice-cold buffer containing 0.32 M sucrose and 25 mM Tris (pH 7.4) using a polytron (Pro 200, Pro Scientific, Inc.). The homogenate was centrifuged at 1000×g for 10 min at 4° C. The resulting supernatant was centrifuged at 40,000×g for 20 min at 4° C. The pellet was suspended in an ice-cold 25 mM Tris-HCl buffer (pH 7.4) and centrifuged at 40,000×g for 20 min at 4° C. The final pellet was suspended in 200 μL of 25 mM Tris-HCl (pH 7.4); membrane protein concentration was determined by BCA protein assay kit. […] The incubation was done at 37° C. for 2 h and terminated by rapid vacuum filtration through glass fiber filters. The filters were washed three times with 250 μL of cold wash buffer (25 mM Tris-HCl, pH 7.4) and the radioactivity determined in a counter. […] Receptor densities are expressed as femtomoles of sites per milligram of protein. Bmax is determined by nonlinear regression of the saturation binding curves. […] Please note that the 15-minute and 28-day time points refer to duration of drug treatment.

[10] = test system: ovalbumin-sensitized, allergen-challenged mice; assay: Aminophylline on acute airway effects of nadolol (methacholine-induced bronchoconstriction), Example 5; format: in vivo; settings: nadolol 0.72 mg/kg i.p. 15 minutes prior to methacholine challenge
Procedure: At time point 1 (time=−10 min) baseline airway resistance of the mice was determined. At time point 2 (time=−5 min) methacholine was infused into mice to reach their EC70.

asthmatic mice [11] = assay: β-adrenergic receptor drugs at low and high doses on airway resistance, Example 7; format: in vivo
Procedure: For these experiments, salbutamol was used for chronic administration at 0.5 mg/kg/day with a minipump and for acute administration at 0.15 mg/kg by i.v. bolus 15 minutes prior to challenge. […] Carvedilol was used at a high dose of 2400 ppm in chow or at a low dose of 720 ppm in chow. […] In these diagrams, Ctrl=control mice, non-asthmatic, non-drug treated; NTX=asthmatic mice, non-drug treated; AC=acute administration; 2d=chronic administration for 2 days; 28d=chronic administration for 28 days. The airway resistance (Raw) is plotted as cm H2O ml^−1 s.

β2-adrenergic receptor [12] = molecular target: T1, β2-adrenergic receptor; assay: Immunohistochemistry of β2-adrenergic receptor levels in lung sections, Example 3; format: in vivo, mice; parameters: from tissue; host or cells: mouse lung sections; settings: chronic nadolol versus untreated animals; epifluorescent microscopy
Procedure: The mice were sacrificed and the lungs excised. Then the lungs were fixed in 4% paraformaldehyde (45 min, 0° C.). After fixation, lungs were washed in PBS (60 min) and placed in increasing concentrations of sucrose (10% sucrose/5% glycine in PBS for 30 min; 20% sucrose/10% glycine in PBS for 30 min; 30% sucrose/15% glycine in PBS for 12 h at 4° C.). Lungs were embedded in OCT and 12-μm sections cut with a Tissue-Tek II cryostat. The sections were air-dried and fixed with 4% paraformaldehyde for 15 minutes. After 3 washes in PBS, the slides were blocked with 5% milk in PBS for 1 hour, and then incubated overnight with anti-β2-adrenergic receptor antibody (1:200, Santa Cruz Biotechnology) in blocking solution. Slides were washed in PBS and incubated with secondary antibody (1:200, Cy3 goat anti-rabbit antibody, 16 h at 4° C.). […] After washing with PBS, coverslips were mounted and viewed by epifluorescent microscopy.

T1 sequence (P18762 whole entry): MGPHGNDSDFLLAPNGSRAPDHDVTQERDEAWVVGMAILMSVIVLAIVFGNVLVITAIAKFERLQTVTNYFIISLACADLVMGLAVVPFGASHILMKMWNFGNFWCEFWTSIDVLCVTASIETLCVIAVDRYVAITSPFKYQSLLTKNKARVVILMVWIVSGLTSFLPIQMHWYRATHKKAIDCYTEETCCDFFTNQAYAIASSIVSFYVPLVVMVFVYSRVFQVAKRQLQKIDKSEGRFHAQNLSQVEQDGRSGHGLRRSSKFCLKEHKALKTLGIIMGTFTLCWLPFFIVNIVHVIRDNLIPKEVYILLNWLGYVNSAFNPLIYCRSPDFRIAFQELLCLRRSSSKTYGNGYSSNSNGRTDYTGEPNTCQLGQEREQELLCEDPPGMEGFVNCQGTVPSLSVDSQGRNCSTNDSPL

## CC(C)(C)NCC(O)COc1cccc2c1CC(O)C(O)C2 (stereo not shown) [Nadolol, nadolol]
β2-adrenergic receptor [1]; 15 minutes administration
  Increased β2AR density: no
β2-adrenergic receptor [1]; 2 days administration
  Increased β2AR density: yes
β2-adrenergic receptor [1]; 28 days administration
  Increased β2AR density: yes
β-arrestin pathway
  block of the β-arrestin pathway: acts to block the β-arrestin pathway
[2]
  airway hyperresponsiveness, administered acutely: worsens airway hyperresponsiveness
  airway hyperresponsiveness, administered chronically: prevents airway hyperresponsiveness
[3]; drug delivered for 28 days (chow or osmotic minipump)
  airway responsiveness to methacholine provocation (Raw), chronic treatment: produced a decrease in airway responsiveness, which was more pronounced than that caused by carvedilol treatment
[3]; single intravenous bolus 15 minutes before methacholine
  airway responsiveness to methacholine provocation (Raw), acute treatment: enhanced the airway responsiveness of asthmatic mice
[4]
  effect on effectiveness of salbutamol after methacholine challenge: does not block the effectiveness of the administration of salbutamol
Asthmatic mice [5]; 15 minutes administration
  Decreased Raw: no
Asthmatic mice [5]; 2 days administration
  Decreased Raw: yes
Asthmatic mice [5]; 28 days administration
  Decreased Raw: yes
[6]
  mucous metaplasia: nearly complete elimination of mucous metaplasia
cAMP accumulation
  cAMP accumulation: not associated with cAMP accumulation
[7]
  lipid solubility: low lipid solubility
[8]
  reduction in smoking: 70%
β2-adrenergic receptor [9]; chronic administration, versus untreated methacholine-challenged asthmatic mice
  increase of the level of β2-adrenergic receptors over the non-treated mice: nearly eightfold increase
β2-adrenergic receptor [9]; lung membranes, drug treatment 15 Minutes
  Apparent KD (of radioligand ICYP): (695.1 ± 286.3) pM
β2-adrenergic receptor [9]; lung membranes, drug treatment 15 Minutes, mean ± SEM, n=3-5
  Bmax (β-adrenergic receptor density): 181.9 ± 48.28 femtomoles of sites per milligram of protein
β2-adrenergic receptor [9]; lung membranes, drug treatment 28 Days
  Apparent KD (of radioligand ICYP): (1591.6 ± 335.0) pM
β2-adrenergic receptor [9]; lung membranes, drug treatment 28 Days, mean ± SEM, n=3-5
  βmax (β-adrenergic receptor density): 785.5 ± 154.8 femtomoles of sites per milligram of protein
[10]
  baseline airway resistance: the same baseline airway resistance as non-drug treated sensitized and allergen-challenged mice
Asthmatic mice [11]; chronic administration in chow, high and low dose
  protection from airway hyperresponsiveness: providing protection from airway hyperresponsiveness with chronic administration
Asthmatic mice [11]; nadolol 1 ppm in chow
  airway resistance (Raw) at 1 ppm in chow: identical to the untreated mice
β2-adrenergic receptor [12]
  labeling with anti-β2-adrenergic receptor antibodies in lungs: considerably more intense
